Like-named read-outs stand apart in the source and are kept apart here.
Legend:
α-D-mannosidase = target: T1, α-D-mannosidase (Canavalia ensiformis, UniProt C0HJB3); experiment: Glycosidase inhibition: α-D-mannosidase; assay type: biochemical, Jack beans (Canavalia ensiformis)
T1 construct: purchased Sigma
Experimental: All enzymes were purchased from Sigma, as were the appropriate p-nitrophenyl substrates. Assays were carried out in microtitre plates. Enzymes were assayed in 0.1M citric acid/0.2M di-sodium hydrogen phosphate (McIlvaine) buffers at the optimum pH for the enzyme. All assays were carried out at 20° C.
Endpoint absorbances were read at 405 nm with a Biorad microtitre plate reader (Benchmark). Water was substituted for the inhibitors in the blanks.

β-D-glucosidase = experiment: Glycosidase inhibition: β-D-glucosidase, almond; assay type: biochemical, Almonds (Prunus sp.)
Experimental: (§1) All enzymes were purchased from Sigma, as were the appropriate p-nitrophenyl substrates. Assays were carried out in microtitre plates. Enzymes were assayed in 0.1M citric acid/0.2M di-sodium hydrogen phosphate (McIlvaine) buffers at the optimum pH for the enzyme. All assays were carried out at 20° C. For screening assays the incubation assay consisted of 10 μl of enzyme solution, 10 μl of inhibitor solution (made up in water) and 50 μl of the appropriate 5 mM p-nitrophenyl substrate (3.57 mM final conc.) made up in McIlvaine buffer at the optimum pH for the enzyme.
(§2) The reactions were stopped with 0.4M glycine (pH 10.4) during the exponential phase of the reaction, which was determined at the beginning of the assay using blanks with water, which were incubated for a range of time periods to measure the reaction rate using 5 mM substrate solution. Endpoint absorbances were read at 405 nm with a Biorad microtitre plate reader (Benchmark). Water was substituted for the inhibitors in the blanks.

β-D-galactosidase = experiment: Glycosidase inhibition: β-D-galactosidase; assay type: biochemical, Bovine; details: 1 mg/ml
Experimental: as §1, §2

[1] = target: T2, rabbit small intestine sucrase (Oryctolagus cuniculus, UniProt P07768); experiment: Inhibition of rabbit small intestine sucrase; assay type: biochemical; details: 700 μM
T2 construct: from tissue; host or cells: rabbit small intestine

Naringinase = experiment: Glycosidase inhibition: Naringinase; assay type: biochemical, Penecillium decumbens; details: 1 mg/ml
Experimental: as §1, §2

[2] = system: Na^+-dependent D-glucose uptake; experiment: Na+-dependent D-glucose uptake into intestinal brush border membrane vesicles; assay type: biochemical, ovine
spleen cells = experiment: Cytokine modulation in spleen cells (IFN-γ); assay type: cell-based, BALB/c mice; details: for IFN-γ: Table 3.2
Experimental: BALB/c male and female mice bred and maintained at the University of Strathclyde under conventional conditions were used at varying age.
Cells suspensions were prepared by using the end of a syringe and grinding the spleen through a wire mesh. The cell suspension was then centrifuged at 1000 rpm for 5 minutes. To remove the erythrocytes, the cell pellet was resuspended in Boyle's solution (Tris 0.17M & Ammonium Chloride 0.16M) and centrifuged again for 5 minutes. The pellet was then washed in medium a further two times, then resuspended in 3 mls medium. A cell count was then carried out.
All spleen cell experiments were carried out in 96-well tissue culture plates. […] Unstimulated wells contained 100 μl of cells and 100 μl of medium. The stimulated wells contained 100 μl of cells plus 50 μl of LPS at 1 μg/ml or 50 μl anti-CD3 at 0.5 μg/ml and 50 μl of medium. The remaining wells contained 100 μl cells, 5 μl of MNLP compound and either 50 μl of anti-CD3 or medium alone.
The appropriate Mabs and standards were used according to the protocol described for IL-12 (described in Example 1, above).

α-D-glucosidase [3] = experiment: Glycosidase inhibition: α-D-glucosidase, Bacillus; assay type: biochemical, Bacillus stearothermophilus; details: 1 mg/ml
Experimental: as §1, §2

[4] = target: T3, rabbit small intestine trehalase (Oryctolagus cuniculus, UniProt P19813); experiment: Inhibition of rabbit small intestine trehalase; assay type: biochemical
T3 construct: from tissue; host or cells: rabbit small intestine

[5] = target: rabbit gut mucosa α-D-glucosidase; experiment: Inhibition of rabbit gut mucosa α-D-glucosidase; assay type: biochemical
α-D-glucosidase [6] = target: T4, α-D-glucosidase (Saccharomyces cerevisiae, UniProt P53341); experiment: Glycosidase inhibition (p-nitrophenyl substrate): α-D-glucosidase, yeast; assay type: biochemical, Saccharomyces cerevisiae (Baker's yeast); details: for inhibition at 1000 µg/mL: 1 mg/ml
T4 construct: purchased Sigma
Experimental: as §1, §2

α-D-galactosidase = target: T5, α-D-galactosidase (Coffea arabica, UniProt Q42656); experiment: Glycosidase inhibition: α-D-galactosidase; assay type: biochemical, Green coffee beans (Coffea sp.); details: 1 mg/ml
T5 construct: purchased Sigma
Experimental: as §1, §2

α-D-glucosidase [7] = target: T6, α-D-glucosidase (Oryza sativa subsp. japonica, UniProt Q653V7); experiment: Glycosidase inhibition: α-D-glucosidase, rice; assay type: biochemical, rice (Oryza sativa); details: 1 mg/ml
T6 construct: purchased Sigma
Experimental: as §1, §2

[8] = target: T7, rabbit small intestine lactase (Oryctolagus cuniculus, UniProt P09849); experiment: Inhibition of rabbit small intestine lactase; assay type: biochemical
T7 construct: from tissue; host or cells: rabbit small intestine

[9] = system: N-acetyl-β-D-glucosaminidase; experiment: Glycosidase inhibition: N-acetyl-β-D-glucosaminidase; assay type: biochemical, Bovine; details: 1 mg/ml
Experimental: as §1, §2

α-L-fucosidase = target: T8, α-L-fucosidase (Bos taurus, UniProt Q2KIM0); experiment: Glycosidase inhibition: α-L-fucosidase; assay type: biochemical, Bovine; details: 1 mg/ml
T8 construct: purchased Sigma
T8 sequence (Q2KIM0 23-468): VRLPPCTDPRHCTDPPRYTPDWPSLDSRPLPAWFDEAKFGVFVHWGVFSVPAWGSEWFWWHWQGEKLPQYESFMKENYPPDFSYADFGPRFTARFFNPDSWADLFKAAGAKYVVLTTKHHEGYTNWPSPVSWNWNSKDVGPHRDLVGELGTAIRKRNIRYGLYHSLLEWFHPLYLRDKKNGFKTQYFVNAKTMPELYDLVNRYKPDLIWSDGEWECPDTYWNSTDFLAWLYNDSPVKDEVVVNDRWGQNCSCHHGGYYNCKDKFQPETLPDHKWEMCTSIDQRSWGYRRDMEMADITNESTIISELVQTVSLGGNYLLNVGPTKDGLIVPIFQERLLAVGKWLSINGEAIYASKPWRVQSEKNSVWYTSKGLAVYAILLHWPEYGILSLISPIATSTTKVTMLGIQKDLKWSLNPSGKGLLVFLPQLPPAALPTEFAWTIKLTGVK
Experimental: as §1, §2

B16-F10 tumour cells = experiment: Control of lung metastasis in mice (B16-F10); assay type: in vivo, C57/bl6 mice; details: 50 mg/kg s/c on days 2 and 4; lungs on day 14
Experimental: Mice (C57/bl6 under i/p ketamine anaesthesia) were challenged i/v (tail vein) with 5×10^4 B16-F10 tumour cells in a final volume of 100 μl per mouse on day 0. Test compounds (50 mg/kg in 200 μl sterile non-pyrogenic saline) were administered sic (right flank) on days 2 and 4. On day 14 the mice were sacrifices and the lungs dissected and stained in Indian ink solution (150 ml bidistilled water, 30 ml India Ink, 4 drops NH4OH) for 10 minutes then fixed for at least 24 hr in Fakete's solution (90 ml 37% formaldehyde, 900 ml 70% EtOH and 45 ml glacial acetic acid). The metastases in the stained and fixed lungs could then be visualized, counted and photographed.

B16G/F10 melanoma cells = experiment: B16/F10 melanoma lung colonies in mice; assay type: in vivo, C57BL/6 mice
Experimental: There were 5 treatment groups in the study, with 6 mice arbitrarily allocated to each group. The treatment groups were as follows:
The dose volume was the daily intake for all animals. Test substances were administered to mice in Groups 2, 3, 4 and 5, as solutions in sterile water for 41 h 32 min prior to tumour cell injection (Day 0 is the day of tumour cell injection).
Mice were injected intravenously, via a tail vein, with 0.1 ml of a suspension of B16G/F10 melanoma cells (approximately 1×10^5 cells/mouse) on Day 0.
All dosing solutions were prepared on the first day of dosing (Day −2) and were kept at room temperature.
Mice: Female C57BL/6 mice were supplied and delivered by Charles River UK Limited. The animals were approximately 6-8 weeks of age on arrival. The animals were acclimatized for 29 days prior to the start of the study, and the body weights at the start of dosing were in the range 18-23 g. During the study, the animals were housed in groups of up to 6 in pediatric filter-topped cages with sawdust bedding (autoclaved for sterility). The room and cages were cleaned at regular intervals each week to maintain hygiene. The mice were fed an expanded rodent diet of RM1(E) SQC (batch number 3822; Special Diets Services, Witham, UK) ad libitum and allowed access to sterilized water (N.V. Nutricia, Zoetermeer, The Netherlands). For Groups 2, 3, 4 and 5, the drinking water also contained the appropriate level of test substance for the duration of the dosing period. […] During the acclimatization and study period the temperature range in the rooms was 18-22° C. and the humidity range was 44-79%.
Tumour challenge: B18F10 murine tumour cells (Shrayer D, Bogaars H. Hearing V. J. Maizel A. & Wanebo H. Further characterization of a clinically relevant model of melanoma metastasis and an effective vaccine. Cancer Immunology, Immunotherapy 1995: 40; 277-282) were harvested from sub-confluent cultures growing in vitro, using minimum trypsination. They were washed in sterile phosphate buffered saline (PBS) and the number of viable cells determined. Cells were resuspended in sterile PBS at a concentration of […]. The mice were intravenously injected, via a tail vein, with 0.1 ml of cell suspension (i.e. approximately 1×10^5 cells/mouse) on Day 0. The mice were examined daily for signs of laboured breathing or distress due to extensive metastatic disease. Mice were exposed to the appropriate test substance for 41 h 32 min prior to tumour cell injection (from Day −2 to Day 0). Following tumour cell implant, the test substances were removed, and animals in all groups received drinking water alone for the remainder of the study.
Sampling and analysis: The animals were terminated on Day 21 (21 days after injection of the tumour cells). Blood samples were taken from 3 mice from each group on the day of termination. Animals were anaesthetized with carbon dioxide and blood samples of maximal volume taken by cardiac puncture and collected in plain tubes. Samples were left to clot at room temperature for a minimum of 1 h prior to serum removal, Serum samples were stored at approximately −70° C. prior to analysis. Immediately after performing the bleeds, the spleens were removed from the 3 selected mice. The spleens from these mice were pooled in a petri dish with approximately 3-5 ml of RPMI 1640 tissue culture medium (batch number 3092202; Invitrogen, Paisley, UK) containing 0.52% penicillin/streptomycin (Pen/Strep; batch number 44K2412; Sigma Aldrich, Poole, UK) prior to splenocyte isolation. The spleens from each group were placed in a glass homogeniser with an additional 10-15 ml of medium and homogenised until opaque. The suspension was then placed in a 50 ml centrifuge tube. On occasions when there was significant cell debris, this was allowed to settle before removing the suspension and placing in a fresh tube. The homogenate was then centrifuged at approximately 200×‘g’ for 5 min at approximately 4° C.

dendritic cells = experiment: Induction of IL-12 secretion in dendritic cells (ELISA); assay type: cell-based, BALB/c mice; details: 50 μg/ml
[10] = read-out: % inhibition, mannosidase

T4 sequence (P53341 whole entry): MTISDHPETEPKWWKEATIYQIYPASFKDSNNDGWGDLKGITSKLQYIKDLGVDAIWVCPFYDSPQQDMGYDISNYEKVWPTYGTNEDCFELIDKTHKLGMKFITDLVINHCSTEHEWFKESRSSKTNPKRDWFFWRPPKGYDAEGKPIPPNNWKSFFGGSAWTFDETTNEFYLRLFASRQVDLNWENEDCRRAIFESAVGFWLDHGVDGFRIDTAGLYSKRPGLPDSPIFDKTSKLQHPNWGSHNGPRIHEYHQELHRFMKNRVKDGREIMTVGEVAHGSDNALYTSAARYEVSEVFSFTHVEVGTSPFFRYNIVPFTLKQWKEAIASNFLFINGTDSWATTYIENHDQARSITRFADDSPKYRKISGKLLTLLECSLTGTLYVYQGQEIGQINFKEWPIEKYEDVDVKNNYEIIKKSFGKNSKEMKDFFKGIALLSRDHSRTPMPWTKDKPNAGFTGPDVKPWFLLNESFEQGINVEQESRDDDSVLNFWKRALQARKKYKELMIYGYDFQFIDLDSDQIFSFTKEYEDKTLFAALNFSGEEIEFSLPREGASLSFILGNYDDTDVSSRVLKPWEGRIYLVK
T1 sequence (C0HJB3 whole entry): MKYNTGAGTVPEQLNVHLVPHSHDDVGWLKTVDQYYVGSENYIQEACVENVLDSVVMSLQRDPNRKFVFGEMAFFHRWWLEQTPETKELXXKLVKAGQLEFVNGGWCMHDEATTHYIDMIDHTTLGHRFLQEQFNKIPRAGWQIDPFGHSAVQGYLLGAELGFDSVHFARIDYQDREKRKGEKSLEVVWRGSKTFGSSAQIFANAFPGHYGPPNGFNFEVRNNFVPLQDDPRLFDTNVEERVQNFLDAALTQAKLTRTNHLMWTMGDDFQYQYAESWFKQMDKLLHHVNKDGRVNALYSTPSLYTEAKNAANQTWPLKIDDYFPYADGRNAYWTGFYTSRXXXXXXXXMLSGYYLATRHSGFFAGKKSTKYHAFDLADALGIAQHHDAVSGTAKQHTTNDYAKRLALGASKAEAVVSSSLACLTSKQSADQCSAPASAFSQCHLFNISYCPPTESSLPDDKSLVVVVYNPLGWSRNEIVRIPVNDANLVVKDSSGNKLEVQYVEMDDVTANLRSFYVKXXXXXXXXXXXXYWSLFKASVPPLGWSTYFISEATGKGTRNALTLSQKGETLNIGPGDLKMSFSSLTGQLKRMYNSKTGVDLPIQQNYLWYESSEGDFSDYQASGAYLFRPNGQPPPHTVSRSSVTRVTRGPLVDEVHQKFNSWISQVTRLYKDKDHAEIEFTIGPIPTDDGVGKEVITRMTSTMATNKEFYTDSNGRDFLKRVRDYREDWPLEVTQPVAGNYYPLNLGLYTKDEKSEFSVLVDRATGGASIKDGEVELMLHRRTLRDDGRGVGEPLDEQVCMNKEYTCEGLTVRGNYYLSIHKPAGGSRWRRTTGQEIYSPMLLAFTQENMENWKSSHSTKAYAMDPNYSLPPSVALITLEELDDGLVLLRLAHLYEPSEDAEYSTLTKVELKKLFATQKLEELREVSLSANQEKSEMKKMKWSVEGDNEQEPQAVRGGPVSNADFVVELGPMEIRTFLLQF
T5 sequence (Q42656 16-378): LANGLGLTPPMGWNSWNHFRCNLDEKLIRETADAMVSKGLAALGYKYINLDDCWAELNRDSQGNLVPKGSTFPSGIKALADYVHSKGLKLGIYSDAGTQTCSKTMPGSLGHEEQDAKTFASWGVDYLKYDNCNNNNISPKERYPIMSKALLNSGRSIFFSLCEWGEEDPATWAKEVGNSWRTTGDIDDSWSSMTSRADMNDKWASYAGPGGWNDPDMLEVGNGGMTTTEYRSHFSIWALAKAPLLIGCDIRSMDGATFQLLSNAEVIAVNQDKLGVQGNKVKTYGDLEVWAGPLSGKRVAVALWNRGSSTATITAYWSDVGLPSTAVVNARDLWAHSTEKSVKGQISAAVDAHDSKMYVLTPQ
T6 sequence (Q653V7 34-885): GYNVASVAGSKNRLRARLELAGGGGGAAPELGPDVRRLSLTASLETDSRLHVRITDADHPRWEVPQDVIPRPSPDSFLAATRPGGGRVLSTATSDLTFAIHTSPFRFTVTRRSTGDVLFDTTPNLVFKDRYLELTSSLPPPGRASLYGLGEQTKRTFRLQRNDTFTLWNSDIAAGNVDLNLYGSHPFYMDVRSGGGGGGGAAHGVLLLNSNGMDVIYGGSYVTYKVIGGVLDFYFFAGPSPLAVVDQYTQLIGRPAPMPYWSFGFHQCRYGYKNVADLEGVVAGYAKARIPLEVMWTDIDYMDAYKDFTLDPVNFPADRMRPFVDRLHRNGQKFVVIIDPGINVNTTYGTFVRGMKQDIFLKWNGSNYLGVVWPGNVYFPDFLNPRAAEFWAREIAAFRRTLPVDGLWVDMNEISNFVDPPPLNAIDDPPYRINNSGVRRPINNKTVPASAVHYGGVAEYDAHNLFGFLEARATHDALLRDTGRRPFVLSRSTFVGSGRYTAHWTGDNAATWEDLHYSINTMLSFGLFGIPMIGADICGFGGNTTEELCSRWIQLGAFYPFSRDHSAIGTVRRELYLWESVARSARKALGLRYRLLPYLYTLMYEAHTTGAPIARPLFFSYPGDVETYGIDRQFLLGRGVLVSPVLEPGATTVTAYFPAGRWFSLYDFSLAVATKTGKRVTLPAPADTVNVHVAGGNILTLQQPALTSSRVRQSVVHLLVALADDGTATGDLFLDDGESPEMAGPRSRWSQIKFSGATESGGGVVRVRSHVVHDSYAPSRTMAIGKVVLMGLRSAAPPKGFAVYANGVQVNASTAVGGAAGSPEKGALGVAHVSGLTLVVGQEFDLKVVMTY
T2 sequence (P07768 1008-1827 limits assumed): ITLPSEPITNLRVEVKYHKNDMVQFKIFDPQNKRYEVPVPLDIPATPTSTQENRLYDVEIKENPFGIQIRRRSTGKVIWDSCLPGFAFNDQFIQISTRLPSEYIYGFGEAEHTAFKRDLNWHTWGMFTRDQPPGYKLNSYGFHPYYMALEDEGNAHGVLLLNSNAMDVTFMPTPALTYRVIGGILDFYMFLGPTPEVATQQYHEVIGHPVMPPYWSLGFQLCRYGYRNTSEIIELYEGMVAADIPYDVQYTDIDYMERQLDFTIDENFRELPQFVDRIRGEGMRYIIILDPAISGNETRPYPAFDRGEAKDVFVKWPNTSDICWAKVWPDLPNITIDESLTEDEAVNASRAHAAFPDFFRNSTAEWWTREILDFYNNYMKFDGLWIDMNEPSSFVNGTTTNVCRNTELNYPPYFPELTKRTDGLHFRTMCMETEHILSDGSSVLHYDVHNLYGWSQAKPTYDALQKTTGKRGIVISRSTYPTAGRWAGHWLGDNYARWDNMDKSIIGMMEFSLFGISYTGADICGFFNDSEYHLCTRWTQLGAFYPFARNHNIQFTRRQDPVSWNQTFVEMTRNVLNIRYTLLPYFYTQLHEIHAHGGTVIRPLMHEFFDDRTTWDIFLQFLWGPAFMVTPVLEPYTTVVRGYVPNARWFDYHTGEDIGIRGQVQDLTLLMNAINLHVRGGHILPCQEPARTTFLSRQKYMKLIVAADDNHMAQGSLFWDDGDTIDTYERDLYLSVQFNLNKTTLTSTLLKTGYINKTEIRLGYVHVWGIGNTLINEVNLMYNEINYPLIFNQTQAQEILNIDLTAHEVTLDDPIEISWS
T2 sequence (P07768 2-1007 partner limits assumed): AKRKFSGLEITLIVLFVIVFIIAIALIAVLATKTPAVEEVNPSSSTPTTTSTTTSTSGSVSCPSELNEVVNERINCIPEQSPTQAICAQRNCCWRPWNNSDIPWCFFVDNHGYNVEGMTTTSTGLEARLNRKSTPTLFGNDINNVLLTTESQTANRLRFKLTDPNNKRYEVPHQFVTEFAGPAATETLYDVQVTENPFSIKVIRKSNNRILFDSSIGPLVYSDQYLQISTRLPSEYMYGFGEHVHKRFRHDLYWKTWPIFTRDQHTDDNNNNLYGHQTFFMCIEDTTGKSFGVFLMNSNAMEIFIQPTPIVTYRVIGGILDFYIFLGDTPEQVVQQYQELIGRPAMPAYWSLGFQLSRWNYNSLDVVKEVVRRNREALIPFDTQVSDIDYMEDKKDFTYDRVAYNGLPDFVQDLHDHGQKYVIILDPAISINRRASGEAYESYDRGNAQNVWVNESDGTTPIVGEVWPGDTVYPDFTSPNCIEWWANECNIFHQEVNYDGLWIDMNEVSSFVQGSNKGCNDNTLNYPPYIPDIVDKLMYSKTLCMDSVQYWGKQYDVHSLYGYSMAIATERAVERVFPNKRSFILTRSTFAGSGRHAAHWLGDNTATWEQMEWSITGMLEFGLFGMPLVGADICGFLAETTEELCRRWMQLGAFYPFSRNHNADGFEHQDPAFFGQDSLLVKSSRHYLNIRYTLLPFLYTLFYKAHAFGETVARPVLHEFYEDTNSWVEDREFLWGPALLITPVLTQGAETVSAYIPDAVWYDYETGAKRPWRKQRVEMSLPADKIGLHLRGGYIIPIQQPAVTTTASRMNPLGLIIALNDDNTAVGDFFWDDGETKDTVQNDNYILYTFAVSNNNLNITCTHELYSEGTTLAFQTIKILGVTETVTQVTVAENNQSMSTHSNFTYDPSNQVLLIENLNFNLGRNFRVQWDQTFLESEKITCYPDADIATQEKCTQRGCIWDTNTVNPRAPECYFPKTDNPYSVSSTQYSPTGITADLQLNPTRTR

## O[C@H]1[C@H](O)[C@@H](O)CN2CC[C@H](O)[C@H]12 [Castanospermine (20), Castanospermine, reference compound]
α-D-mannosidase; [10]
  inhibition at 1000 µg/mL: 9%
β-D-glucosidase
  Ki: 9 µM
β-D-glucosidase; 1 mg/ml
  % inhibition, glucosidase: 88%
β-D-galactosidase; second galactosidase line
  % inhibition, galactosidase: 16%
[1]
  inhibition of rabbit small intestine sucrase: inhibited
Naringinase
  % inhibition, Naringinase: 39%
[2]; initial rate, competition with labelled D-glucose, control 240
  Glucose uptake: 225 pmol/s/mg
[2]; versus control
  glucose transport, effect: slightly inhibited
Spleen cells
  IFN-γ secretion/production in splenocytes: inhibits
Spleen cells; + αCD3
  IFN-γ: 9.0 ng/mL
Spleen cells; treatment alone
  IFN-γ: <1.0 ng/mL
α-D-glucosidase [3]
  % inhibition, gluc (Bacillus): 6%
[4]
  inhibition at 700 µM: > 50%
[5]
  IC50: 8 µM
α-D-glucosidase [6]; 800 μM
  inhibition of yeast α-D-glucosidase: not being inhibitory
α-D-glucosidase [6]; read-out: % inhibition, gluc (yeast)
  inhibition at 1000 µg/mL: -8%
α-D-galactosidase; first galactosidase line, read-out: % inhibition, galactosidase
  inhibition at 1000 µg/mL: -3%
α-D-glucosidase [7]; read-out: % inhibition, gluc (rice)
  inhibition at 1000 µg/mL: 77%
[8]
  inhibition at 700 µM: > 50%
[9]
  % inhibition, N-acetyl-β-gluc: 16%
α-L-fucosidase; read-out: % inhibition, fucosidase
  inhibition at 1000 µg/mL: 3%

## OCCN1[C@H](CO)[C@@H](O)[C@H](O)[C@H]1CO [N-hydroxyethyl DMDP, N-hydroxyethyl-2,5-dihydroxymethyl-3,4-dihydroxypyrrolidine]
α-D-mannosidase; read-out: % inhibition, α-mannosidase
  inhibition at 1000 µg/mL: 11%
β-D-glucosidase; 1 mg/ml
  % inhibition, β-glucosidase: 64%
β-D-galactosidase
  % inhibition, β-galactosidase: 73%
Naringinase
  % inhibition, Naringinase: 22%
B16-F10 tumour cells
  Metastatic morphology: Metastasis restricted to apical tip of lung
α-D-glucosidase [3]
  % inhibition, α-gluc (Bacillus): 85%
α-D-glucosidase [6]; read-out: % inhibition, α-gluc (yeast)
  inhibition at 1000 µg/mL: 56%
α-D-galactosidase; read-out: % inhibition, α-galactosidase
  inhibition at 1000 µg/mL: 7%
α-D-glucosidase [7]; read-out: % inhibition, α-gluc (rice)
  inhibition at 1000 µg/mL: 43%
[9]
  % inhibition, N-acetyl-β-gluc: 13%
α-L-fucosidase; read-out: % inhibition, α-fucosidase
  inhibition at 1000 µg/mL: -4%

## O[C@H]1[C@H]2[C@H](O)CCCN2C[C@H]1O [Swainsonine (4), Swainsonine, reference compound]
α-D-mannosidase; [10]
  inhibition at 1000 µg/mL: 74%
B16G/F10 melanoma cells; 3 μg/ml in drinking water before tumour cell injection, Day 21, mean ± s.e.m.
  Colony Count: 21.33 ± 4.11
B16G/F10 melanoma cells; 3 μg/ml in drinking water, versus vehicle
  % Reduction: 69%
Dendritic cells
  induction of IL-12 secretion: failed to induce IL-12 secretion

From patent publication US20090117083A1, “IMMUNOMODULATORY ALKALOIDS” (M N L PHARMA LIMITED, priority 2004, published 2009)
